Test results: patent publication US6773881B2, “Methods of modulating hair growth” (The General Hospital Corporation, priority 2000, dated 2004)
Entries after “also recorded” stand apart in the source; their conditions may differ.

Test system: mouse vibrissa follicles
Assay: Mouse vibrissa organ culture system
Assay type: cell-based, mice
Conditions: 4 days
Description: Whisker pads were isolated from three 5 week old female C57/BL mice and were shortly immersed in 70% ethanol in phosphate-buffered saline (PBS), followed by a 10 minute incubation in William's E medium containing 400 U/ml penicillin, 400 μg/ml streptomycin, and 1.0 μg/ml fungizone (all from GibcoBRL). Vibrissa follicles in the anagen growth phase were isolated under a dissecting microscope, and the part of the vibrissa shaft that extend over the epidermal surface was cut off. Vibrissa follicles were then incubated on Millapore membranes in William's E medium alone (n-8), in medium containing 50 ng/ml recombinant murine VEGF (R&D Systems; n=6), or medium containing 5% fetal bovine serum (FBS; n=8). The media were replaced by fresh media after 2 days, and the follicles were incubated over a total period of 4 days. After 4 days, the length of the outgrowing hair shafts was measured by image analysis of digital pictures, taken under a Nikon E600 microscope.
In addition, whisker follicles were isolated and cultured as described above. Seven follicles were treated with 5 μg/ml of a goat anti-mouse VEGF neutralizing antibody (R&D Systems), and 8 follicles were treated with 5 μg/ml of normal goat IgG.

For VEGF, which “average hair growth (length of outgrowing hair shafts)” value (50 ng/ml recombinant murine VEGF, control 1.963±0.101 mm) is on record?
The value was 1.959±0.086 mm.

And the “effect on in vitro hair growth compared with control” value (vibrissa organ culture, absence of a vascular system)?
The value was “no significant differences; also recorded: did not influence”.
